The values below come from US12364668B2, “Treatment of opioid use disorder, opioid withdrawal symptoms, and chronic pain” (THE REGENTS OF THE UNIVERSITY OF CALIFORNIA, priority 2017, dated 2025).

The conditions of data set [1]: rats (Graham and Li, 1973); cited from earlier work.
In data set [2] the target is Cytochrome P450 3A4 (CYP 3A4) (Homo sapiens, UniProt P08684). Particulars: in vitro study (Stout and Cimino 2014); cited from earlier work.
For data set [3], the system named is Chronic Constriction Injury model of chronic neuropathic pain. The data set is described as follows: Von Frey pain threshold in the Chronic Constriction Injury (sciatic nerve ligation) model. The note with it: CCI rats.
Excerpt: Male Sprague Dawley rats underwent baseline measurement of pain threshold via Von Frey testing according to the study schema in FIG. 4. The following day, rats underwent surgical ligation of the sciatic nerve using the Chronic Constriction Injury model of chronic neuropathic pain. After 7 days to allow the development of chronic neuropathic pain, rats underwent repeat Von Frey testing to determine pain threshold and started oral treatment with CBD or saline (Table 2). After 7 days of CBD or saline, rats underwent pre-dosing pain threshold determination via Von Frey testing and then received either standard dose BUP, low dose BUP, CBD alone or low dose BUP plus CBD followed by repeat post-dose pain threshold determination via Von Frey testing (Table 3).

Chain of Cytochrome P450 3A4 (CYP 3A4) (P08684 whole entry, species assumed): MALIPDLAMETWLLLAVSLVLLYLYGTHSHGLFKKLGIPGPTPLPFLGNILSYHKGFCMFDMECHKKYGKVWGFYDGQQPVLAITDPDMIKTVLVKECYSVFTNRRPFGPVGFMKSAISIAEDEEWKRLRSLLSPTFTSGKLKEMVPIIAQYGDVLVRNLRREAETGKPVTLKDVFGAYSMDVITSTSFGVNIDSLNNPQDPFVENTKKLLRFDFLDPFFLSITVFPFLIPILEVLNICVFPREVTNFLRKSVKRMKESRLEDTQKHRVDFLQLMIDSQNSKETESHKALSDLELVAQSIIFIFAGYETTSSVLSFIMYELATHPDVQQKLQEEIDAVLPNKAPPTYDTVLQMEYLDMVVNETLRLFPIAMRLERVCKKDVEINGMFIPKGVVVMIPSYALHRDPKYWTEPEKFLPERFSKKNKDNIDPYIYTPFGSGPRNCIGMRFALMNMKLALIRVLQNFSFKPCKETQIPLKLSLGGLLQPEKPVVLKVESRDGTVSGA

With `C=C(C)[C@@H]1CCC(C)=C[C@H]1c1c(O)cc(CCCCC)cc1O` [CBD, cannabidiol], the “Effect on respiratory rate” value in data set [1] is “did not reduce”. In addition, in data set [2], the “Inhibition of CYP 3A4” value is listed as “inhibits”. Besides, in data set [3] (CBD alone 7 mg/kg PO days 7-14, saline IV on day 14), the “Mean pain threshold (g in Von Frey Testing), Day 14-1 hour Post Dose” value was 5.25 g. The “Pain threshold on day 14 compared to no BUP (Group 1)” value in data set [3] (CBD alone 7 mg/kg PO days 7-14) is on record as “did not significantly increase”. In data set [3] (CBD alone group, after 7 days of CBD 7 mg/kg PO, before day 14 dosing), the “Mean pain threshold (g in Von Frey Testing), Day 14 Pre-Dose” value worked out at 5.50 g.
